Assay results: US11427548B2 (Arvinas Operations, Inc., priority 2015, dated 2022)
Where two headings read alike, the source gives them in different places.

Columns and labels:
[1] = target: T1, Androgen Receptor (Homo sapiens, UniProt P10275); assay: Androgen Receptor ELISA assay (PathScan AR ELISA) in VCaP cells: AR degradation, Dmax and DC50; assay type: cell-based
T1 construct: endogenous in cells; host or cells: VCaP cells
T1 sequence (P10275 1-920): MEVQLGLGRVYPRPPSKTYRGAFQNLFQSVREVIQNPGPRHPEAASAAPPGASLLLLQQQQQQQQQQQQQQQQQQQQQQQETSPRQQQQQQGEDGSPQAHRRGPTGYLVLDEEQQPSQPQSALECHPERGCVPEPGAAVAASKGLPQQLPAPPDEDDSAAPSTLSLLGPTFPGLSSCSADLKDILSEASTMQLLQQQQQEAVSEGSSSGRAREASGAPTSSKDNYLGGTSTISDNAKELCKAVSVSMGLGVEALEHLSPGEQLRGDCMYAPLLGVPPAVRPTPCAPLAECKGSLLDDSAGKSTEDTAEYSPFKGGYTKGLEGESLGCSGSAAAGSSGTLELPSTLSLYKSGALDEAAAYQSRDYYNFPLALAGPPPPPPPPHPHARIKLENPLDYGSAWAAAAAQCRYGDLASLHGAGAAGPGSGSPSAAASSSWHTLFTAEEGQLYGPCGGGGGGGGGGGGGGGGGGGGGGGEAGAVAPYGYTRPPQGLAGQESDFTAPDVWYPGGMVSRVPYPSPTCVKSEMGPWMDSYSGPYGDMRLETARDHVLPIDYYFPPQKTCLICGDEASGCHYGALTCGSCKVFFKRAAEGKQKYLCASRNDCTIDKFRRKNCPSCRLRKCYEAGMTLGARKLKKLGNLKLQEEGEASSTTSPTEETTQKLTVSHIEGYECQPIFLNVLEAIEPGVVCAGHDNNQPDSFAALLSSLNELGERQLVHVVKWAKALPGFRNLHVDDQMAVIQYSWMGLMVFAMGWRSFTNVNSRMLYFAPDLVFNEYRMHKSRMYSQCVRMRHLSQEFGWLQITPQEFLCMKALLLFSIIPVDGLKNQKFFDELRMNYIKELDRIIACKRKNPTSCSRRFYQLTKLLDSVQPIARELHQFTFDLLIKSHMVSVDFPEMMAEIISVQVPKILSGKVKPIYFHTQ
How it was run: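 After 24 h exposure of VCaP cells (charcoal-stripped serum, 0.1 nM R1881 agonist, 0.1% DMSO) to seven half-log compound concentrations, residual AR in lysates was measured by PathScan ELISA (TMB absorbance, 450 nm). Cells were plated at 30,000/well and grown at least 3 days beforehand.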

[2] = target: T2, Androgen Receptor (Homo sapiens, UniProt P10275+P40337, T878A); assay: Androgen Receptor ELISA assay (PathScan AR ELISA) in LNCaP cells: AR degradation, Dmax and DC50; assay type: cell-based; conditions: for DC50: concentration that caused 50% Androgen Receptor degradation
T2 construct: Compounds have been evaluated in this assay in LNCaP and/or VCaP cells utilizing similar protocols; endogenous in cells; host or cells: LNCaP cells
T2 sequence (P10275 whole entry T878A): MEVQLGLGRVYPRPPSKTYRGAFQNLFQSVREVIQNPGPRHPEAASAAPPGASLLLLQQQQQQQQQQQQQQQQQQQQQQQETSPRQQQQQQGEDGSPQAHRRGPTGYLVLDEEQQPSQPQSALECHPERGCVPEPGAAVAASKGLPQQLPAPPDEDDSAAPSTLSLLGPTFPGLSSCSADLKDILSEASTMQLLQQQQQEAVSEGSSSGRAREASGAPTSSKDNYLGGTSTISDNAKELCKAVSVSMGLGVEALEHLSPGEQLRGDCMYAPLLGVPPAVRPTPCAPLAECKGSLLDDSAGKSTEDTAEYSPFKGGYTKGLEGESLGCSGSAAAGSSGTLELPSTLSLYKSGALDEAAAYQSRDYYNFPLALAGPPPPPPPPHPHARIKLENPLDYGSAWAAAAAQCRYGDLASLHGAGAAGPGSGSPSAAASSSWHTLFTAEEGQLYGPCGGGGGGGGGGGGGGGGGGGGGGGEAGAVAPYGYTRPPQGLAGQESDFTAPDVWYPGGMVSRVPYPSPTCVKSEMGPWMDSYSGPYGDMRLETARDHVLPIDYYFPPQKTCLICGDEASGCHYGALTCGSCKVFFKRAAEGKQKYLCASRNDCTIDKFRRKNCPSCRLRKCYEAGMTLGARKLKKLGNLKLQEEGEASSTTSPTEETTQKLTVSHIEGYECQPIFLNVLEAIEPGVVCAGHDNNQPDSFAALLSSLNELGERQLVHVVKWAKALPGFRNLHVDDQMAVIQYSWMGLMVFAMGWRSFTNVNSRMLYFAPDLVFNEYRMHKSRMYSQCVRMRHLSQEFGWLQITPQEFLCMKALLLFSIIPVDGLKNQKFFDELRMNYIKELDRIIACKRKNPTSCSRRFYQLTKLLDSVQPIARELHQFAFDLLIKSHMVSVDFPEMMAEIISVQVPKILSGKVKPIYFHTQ
T2 sequence (P40337 whole entry): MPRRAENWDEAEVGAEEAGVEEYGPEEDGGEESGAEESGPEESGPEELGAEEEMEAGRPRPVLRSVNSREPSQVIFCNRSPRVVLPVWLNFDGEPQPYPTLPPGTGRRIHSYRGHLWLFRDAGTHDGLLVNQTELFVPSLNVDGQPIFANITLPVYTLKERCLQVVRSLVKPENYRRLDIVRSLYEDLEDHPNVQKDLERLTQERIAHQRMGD
T2 sequence (Q15369 whole entry partner): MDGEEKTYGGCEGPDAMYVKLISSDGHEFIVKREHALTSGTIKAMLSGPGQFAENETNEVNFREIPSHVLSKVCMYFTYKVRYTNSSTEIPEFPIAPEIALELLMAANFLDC
T2 sequence (Q15370 whole entry partner): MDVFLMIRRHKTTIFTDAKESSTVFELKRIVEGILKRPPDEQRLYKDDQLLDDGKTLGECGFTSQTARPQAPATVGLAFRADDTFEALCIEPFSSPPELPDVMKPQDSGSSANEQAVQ

[3] = highest percentage of Androgen Receptor degradation observed
[4] = highest percentage of Androgen Receptor degradation
[5] = read-out: VCaP DC50; VCaP cells; concentration that caused 50% Androgen Receptor degradation

SMILES	DC50 ([1]; concentration that caused 50% Androgen Receptor degradation, VCaP cells; read-out: VCaP DC50)	VCaP Dmax (%) ([1]; highest percentage of Androgen Receptor degradation observed, VCaP cells)	DC50 [2]	LNCaP Dmax (%) [2, 3]	Dmax ([1]; VCaP, read-out: VCaP Dmax (%))	DC50 ([1]; read-out: VCaP DC50; concentration that caused 50% Androgen Receptor degradation, VCaP cells)	Dmax [2, 3]	Dmax [2, 4]	DC50 [1, 5]
Cc1ncsc1-c1ccc([C@H](C)NC(=O)[C@@H]2C[C@@H](O)CN2C(=O)[C@@H](NC(=O)COCCOCCOc2ccc(-c3ccc(N4C(=S)N(c5ccc(C#N)c(C(F)(F)F)c5)C(=O)C4(C)C)cc3F)cc2)C(C)(C)C)cc1 [Example 79, (2S,4R)-l-[(2S)-2-[2-(2-{2-[4-(4-{3-[4-cyano-3-(trifluoromethyl)phenyl]-5,5-dimethyl-4-oxo-2-sulfanylideneimidazolidin-1-yl}-2-fluorophenyl)phenoxy]ethoxy}ethoxy)acelamido]-3,3-dimethylbutanoyl]-4-hydroxy-N-[(1S)-l-[4-(4-methyl-l,3-thiazol-5-yl)phenyl]ethyl]pyrrolidine-2-carboxamide]	< 50 nM	+++ (51% ≤ Dmax ≤ 70%)	< 50 nM	++++ (71% ≤ Dmax)	–	–	–	–	–
Cc1ncsc1-c1ccc(CNC(=O)[C@@H]2C[C@@H](O)CN2C(=O)[C@@H](NC(=O)COCCCCOCCN2CCC(c3ccc(N4C(=S)N(c5ccc(C#N)c(C(F)(F)F)c5)C(=O)C4(C)C)cc3)CC2)C(C)(C)C)cc1 [Example 81, (2S,4R)-1-((S)-2-(2-(4-(2-(4-(4-(3-(4-cyano-3-(trifluoromethyl)phenyl)-5,5-dimethyl-4-oxo-2-thioxoimidazolidin-1-yl)phenyl)piperidin-1-yl)ethoxy)butoxy)acetamido)-3,3-dimethylbutanoyl)-4-hydroxy-N-(4-(4-methylthiazol-5-yl)benzyl)pyrrolidine-2-carboxamide]	–	–	> 501 nM	–	< 25%	51 to 500 nM	51 to 70%	–	–
Cc1ncsc1-c1ccc(CNC(=O)[C@@H]2C[C@@H](O)CN2C(=O)[C@@H](NC(=O)COCCCOCCCOc2ccc(N3C(=S)N(c4ccc(C#N)c(C(F)(F)F)c4)C(=O)C3(C)C)cc2)C(C)(C)C)cc1 [Example 238]	–	–	51 to 500 nM	–	< 25%	–	–	51 to 70%	–
Cc1ncsc1-c1ccc(CNC(=O)[C@@H]2C[C@H](O)CN2C(=O)[C@@H](NC(=O)COCCCOCCCCCOc2ccc(N3C(=S)N(c4ccc(C#N)c(C(F)(F)F)c4)C(=O)C3(C)C)cc2)C(C)(C)C)cc1 [Example 242]	–	–	> 501 nM	–	26 to 50%	–	–	26 to 50%	> 501 nM
Cc1ncsc1-c1ccc(CNC(=O)[C@@H]2C[C@@H](O)CN2C(=O)[C@@H](NC(=O)COCCOCCCCCOc2ccc(N3C(=S)N(c4ccc(C#N)c(C(F)(F)F)c4)C(=O)C3(C)C)cc2)C(C)(C)C)cc1 [Example 247]	–	–	< 50 nM	–	> 71%	–	–	> 71%	< 50 nM
Cc1ncsc1-c1ccc(CNC(=O)[C@@H]2C[C@@H](O)CN2C(=O)[C@@H](NC(=O)CCCOCCOc2ccc(-c3ccc(N4C(=S)N(c5ccc(C#N)c(C(F)(F)F)c5)C(=O)C4(C)C)cc3)cc2)C(C)(C)C)cc1 [Example 260]	–	–	51 to 500 nM	–	26 to 50%	–	–	> 71%	< 50 nM
Cc1ncsc1-c1ccc(CNC(=O)[C@@H]2C[C@@H](O)CN2C(=O)[C@@H](NC(=O)c2cccc(OCCCCOc3ccc(N4C(=S)N(c5ccc(C#N)c(C(F)(F)F)c5)C(=O)C4(C)C)cc3)c2)C(C)(C)C)cc1 [Example 278]	–	–	51 to 500 nM	–	51 to 70%	–	–	> 71%	< 50 nM
Cc1ncsc1-c1ccc(CNC(=O)[C@@H]2C[C@@H](O)CN2C(=O)[C@@H](NC(=O)COCCCOCCOc2cccc(-c3ccc(N4C(=S)N(c5ccc(C#N)c(C(F)(F)F)c5)C(=O)C4(C)C)cc3)c2)C(C)(C)C)cc1 [Example 288]	–	–	< 50 nM	–	26 to 50%	–	–	> 71%	< 50 nM
Cc1ncsc1-c1ccc(CNC(=O)[C@@H]2C[C@@H](O)CN2C(=O)[C@@H](NC(=O)CCc2ccc(OCCCOc3ccc(N4C(=S)N(c5ccc(C#N)c(C(F)(F)F)c5)C(=O)C4(C)C)cc3)cc2)C(C)(C)C)cc1 [Example 292]	–	–	51 to 500 nM	–	26 to 50%	–	–	51 to 70%	51 to 500 nM
Cc1ncsc1-c1ccc(CNC(=O)[C@@H]2C[C@@H](O)CN2C(=O)[C@@H](NC(=O)COCCCCOC2CCN(C(=O)c3ccc(N4C(=S)N(c5ccc(C#N)c(C(F)(F)F)c5)C(=O)C4(C)C)cc3)CC2)C(C)(C)C)cc1 [Example 293]	–	–	51 to 500 nM	–	< 25%	–	–	51 to 70%	–
Cc1ncsc1-c1ccc(CNC(=O)[C@@H]2C[C@@H](O)CN2C(=O)[C@@H](NC(=O)COCCCCCOC2CCN(C(=O)c3ccc(N4C(=S)N(c5ccc(C#N)c(C(F)(F)F)c5)C(=O)C4(C)C)cc3)CC2)C(C)(C)C)cc1 [Example 294]	–	–	51 to 500 nM	–	26 to 50%	–	–	26 to 50%	51 to 500 nM
Cc1ncsc1-c1ccc(CNC(=O)[C@@H]2C[C@@H](O)CN2C(=O)[C@@H](NC(=O)COCCCCCOCCCOc2ccc(N3C(=S)N(c4ccc(C#N)c(C(F)(F)F)c4)C(=O)C3(C)C)cc2)C(C)(C)C)cc1 [Example 295]	–	–	< 50 nM	–	26 to 50%	–	–	> 71%	< 50 nM
Cc1ncsc1-c1ccc(CNC(=O)[C@@H]2C[C@@H](O)CN2C(=O)[C@@H](NC(=O)COCCOc2cccc(CCCOc3ccc(N4C(=S)N(c5ccc(C#N)c(C(F)(F)F)c5)C(=O)C4(C)C)cc3)c2)C(C)(C)C)cc1 [Example 296]	–	–	51 to 500 nM	–	26 to 50%	–	–	> 71%	< 50 nM
Cc1ncsc1-c1ccc(CNC(=O)[C@@H]2C[C@@H](O)CC2C(=O)[C@H](C(C)C)N2Cc3ccccc3C2=O)c(OCCOC2CCCC[C@@H]2OCCOc2ccc(N3C(=S)N(c4ccc(C#N)c(C(F)(F)F)c4)C(=O)C3(C)C)cc2)c1 (some centres unmarked) [Example 297]	–	–	> 501 nM	–	26 to 50%	–	–	26 to 50%	–
Cc1ncsc1-c1ccc(CNC(=O)[C@@H]2C[C@@H](O)CN2C(=O)[C@@H](NC(=O)Cc2cccc(OCCCOCCOc3ccc(N4C(=S)N(c5ccc(C#N)c(C(F)(F)F)c5)C(=O)C4(C)C)cc3)c2)C(C)(C)C)cc1 [Example 298]	–	–	51 to 500 nM	–	26 to 50%	–	–	51 to 70%	51 to 500 nM
Cc1ncsc1-c1ccc(CNC(=O)[C@@H]2C[C@@H](O)CN2C(=O)[C@H](C(C)C)N2Cc3c(CCCOCCOc4ccc(N5C(=S)N(c6ccc(C#N)c(C(F)(F)F)c6)C(=O)C5(C)C)cc4)cccc3C2=O)cc1 [Example 299]	–	–	51 to 500 nM	–	26 to 50%	–	–	> 71%	–
Cc1ncsc1-c1ccc(CNC(=O)[C@@H]2C[C@@H](O)CN2C(=O)[C@@H](NC(=O)CCCOCCOCCCOc2ccc(N3C(=S)N(c4ccc(C#N)c(C(F)(F)F)c4)C(=O)C3(C)C)cc2)C(C)(C)C)cc1 [Example 300]	–	–	< 50 nM	–	51 to 70%	–	–	51 to 70%	< 50 nM
Cc1ncsc1-c1ccc(CNC(=O)[C@@H]2C[C@@H](O)CN2C(=O)[C@@H](NC(=O)CCCOCCCOCCCOc2ccc(N3C(=S)N(c4ccc(C#N)c(C(F)(F)F)c4)C(=O)C3(C)C)cc2)C(C)(C)C)cc1 [Example 301]	–	–	< 50 nM	–	51 to 70%	–	–	51 to 70%	–
Cc1ncsc1-c1ccc(CNC(=O)[C@@H]2C[C@@H](O)CN2C(=O)[C@@H](NC(=O)CCCOc2ccc(CCOc3ccc(N4C(=S)N(c5ccc(C#N)c(C(F)(F)F)c5)C(=O)C4(C)C)cc3)cc2)C(C)(C)C)cc1 [Example 302]	–	–	51 to 500 nM	–	51 to 70%	–	–	> 71%	< 50 nM
